Data as given in patent US9221827B2, “Antimicrobial compounds and methods of making and using the same” (Melinta Therapeutics, Inc., priority 2011, dated 2015).

System: Escherichia coli strain ATCC25922
Experiment: standard microdilution assay to determine minimum inhibitory concentrations (MICs)
Type: cell-based
Protocol: The in vitro activity of the compounds of the present invention can be determined. Antimicrobial testing is typically performed to determine the minimum inhibitory concentration (MIC). Minimum inhibitory concentrations (MICs) are determined by the microdilution method in a final volume of 100 μl according to protocols outlined by The Clinical and Laboratory Standards Institute (CLSI). Performance standards for reference strains are assessed within the same experimental design to maintain quality control. See, for example, Clinical Laboratory Standards Institute: Methods for dilution antimicrobial susceptibility tests for bacteria that grow aerobically M7-A8. Approved Standard-Eighth Edition. Wayne, Pa.: CLSI; December 2008; and Clinical Laboratory Standards Institute: Performance Standards for Antimicrobial Susceptibility Testing M100-S20; Approved Standard-Twentieth Edition. Wayne, Pa.: CLSI; June 2010.
The compounds of the present invention were tested for antimicrobial activity. […] The compounds were run against Escherichia coli strain ATCC25922 using a standard microdilution assay to determine minimum inhibitory concentrations (MICs). […] A “N/A” means that data is unavailable. It will be recognized by one skilled in the art that the compounds can be assessed against other bacterial organisms and that the presentation of data for activity against Escherichia coli is illustrative and in no way is intended to limit the scope of the present invention. The compounds of the present invention can be assayed against a range of other microorganisms depending upon the performance activity desired to be gathered. Furthermore, the “+”, “−”, and “N/A” representation and the selection of a cutoff value of 16 micrograms/ml is also illustrative and in no way is intended to limit the scope of the present invention.

[1] = Escherichia coli strain ATCC25922, standard microdilution assay
[2] = Escherichia coli strain ATCC25922, microdilution

Row | SMILES | E. coli ATCC25922 MIC [1] | E. coli ATCC25922 MIC [2]
1 | C[C@H](NCCCNC(=N)N)c1ccc(-n2cc3cc(-c4cc(COC5COCC5N)cc(OC(F)(F)F)c4)[nH]c3nc2=O)cc1 (stereo partly shown) [Compound 460] | + (a “+” indicates that the compound has an MIC value of 16 micrograms/ml or less) | 
2 | CC(N)CCCc1cc(Cl)c(F)c(-c2cc3cn(-c4ccc(C(C)NCCCNC(N)=NC5CCC5)cc4)c(=O)nc3[nH]2)c1 (stereo not shown) [Compound 368] | + (a “+” indicates that the compound has an MIC value of 16 micrograms/ml or less) | 
3 | N=C(N)NCCCNCc1ccc(-c2c[nH]c(NC(=O)Nc3c(Cl)cccc3OCCCN)nc2=O)cc1 [Compound 187] |  | − (a “−” indicates that the compound has an MIC value greater than 16 micrograms/ml)
4 | CCC(N)CCCc1cc(Cl)c(F)c(-c2cc3cn(-c4ccc(C(C)NCCCNC(=N)N)cc4)c(=O)nc3[nH]2)c1 (stereo not shown) [Compound 374] | + (a “+” indicates that the compound has an MIC value of 16 micrograms/ml or less) | 
5 | N=C(N)NCCCCc1cc(-c2cc3cn(-c4ccc(CNCCCNC(=N)N)cc4)c(=O)nc3[nH]2)cc(-n2ccnn2)c1 [Compound 56] |  | + (a “+” indicates that the compound has an MIC value of 16 micrograms/ml or less)
6 | CN(CCCNC(=N)N)Cc1ccc(-n2cc3cc(-c4cc(CCCCN)cc(C(F)(F)F)c4)[nH]c3nc2=O)cc1 [Compound 338] | + (a “+” indicates that the compound has an MIC value of 16 micrograms/ml or less) | 
7 | COC[C@H](N)CCCc1cc(SC(F)(F)F)cc(-c2cc3cn(-c4ccc(CNCCCNC(=N)N)cc4)c(=O)nc3[nH]2)c1 [Compound 424] | + (a “+” indicates that the compound has an MIC value of 16 micrograms/ml or less) | 
8 | NC(N)=NCCCNCc1ccc(-n2cc3cc(-c4cccc(CCCO)c4)[nH]c3nc2=O)cc1 [Compound 66] |  | − (a “−” indicates that the compound has an MIC value greater than 16 micrograms/ml)
9 | N=C(N)NCCCNCc1ccc(-n2cc3cc(-c4cc(CCCCN)cc(C5CCC5)c4)[nH]c3nc2=O)cc1 [Compound 40] |  | + (a “+” indicates that the compound has an MIC value of 16 micrograms/ml or less)
10 | N#Cc1cc(CCCCN)cc(-c2cc3cn(-c4ccc(CNCCCNC(=N)N)cc4)c(=O)nc3[nH]2)c1Cl [Compound 114] |  | + (a “+” indicates that the compound has an MIC value of 16 micrograms/ml or less)
11 | C[C@@H](CN)OCc1cc(SC(F)(F)F)cc(-c2cc3cn(-c4ccc(CNCCCNC(=N)N)cc4)c(=O)nc3[nH]2)c1 [Compound 326] |  | + (a “+” indicates that the compound has an MIC value of 16 micrograms/ml or less)
12 | N=C(N)NCCCNCc1ccc(-n2cc3cc(-c4cc(CCCN)cc(Cl)c4Cl)[nH]c3nc2=O)cc1 [Compound 224] |  | + (a “+” indicates that the compound has an MIC value of 16 micrograms/ml or less)
13 | Cc1cc(CCC[C@H](C)N)cc(-c2cc3cn(-c4ccc([C@H](C)NCCCNC(=N)N)cc4)c(=O)nc3[nH]2)c1C [Compound 468] | + (a “+” indicates that the compound has an MIC value of 16 micrograms/ml or less) | 
14 | CC(N)CCCc1cccc(-c2cc3cn(-c4ccc(CNCCCNC(=N)N)cc4)c(=O)nc3[nH]2)n1 (stereo not shown) [Compound 370] | + (a “+” indicates that the compound has an MIC value of 16 micrograms/ml or less) | 
15 | C[C@@H](N)CCc1cc(SC(F)(F)F)cc(-c2cc3cn(-c4ccc(CNCCCNC(=N)N)cc4)c(=O)nc3[nH]2)c1 [Compound 397] | + (a “+” indicates that the compound has an MIC value of 16 micrograms/ml or less) | 
16 | C[C@H](N)CCCc1cc(Cl)c(OC(F)(F)F)c(-c2cc3cn(-c4ccc(CNCCCNC(=N)N)cc4)c(=O)nc3[nH]2)c1 [Compound 321] |  | + (a “+” indicates that the compound has an MIC value of 16 micrograms/ml or less)

Row | SMILES | E. coli ATCC25922 MIC [1] | E. coli ATCC25922 MIC [2]
17 | C[C@H](N)CCCc1cc(-c2cc3cn(-c4ccc(CNCCCNC(=N)N)cc4)c(=O)nc3[nH]2)cc(C(C)(C)C)c1 [Compound 439] | + (a “+” indicates that the compound has an MIC value of 16 micrograms/ml or less) | 
18 | CC(N)COCc1cc(Cl)c(F)c(-c2cc3cn(-c4ccc(C(C)NCCCNC(=N)N)cc4)c(=O)nc3[nH]2)c1 (stereo not shown) [Compound 376] | + (a “+” indicates that the compound has an MIC value of 16 micrograms/ml or less) | 
19 | C[C@H](NCCCNC(=N)N)c1ccc(-n2cc3cc(-c4cc(CC[C@@H](C)N)cc(Cl)c4F)[nH]c3nc2=O)cc1 [Compound 411] | + (a “+” indicates that the compound has an MIC value of 16 micrograms/ml or less) | 
20 | CC(C)(CN)CCc1ccc(F)c(-c2cc3cn(-c4ccc(CNCCCNC(=N)N)cc4)c(=O)nc3[nH]2)c1 [Compound 117] |  | + (a “+” indicates that the compound has an MIC value of 16 micrograms/ml or less)
21 | C[S+]([O-])c1cc(CCCCN)cc(-c2cc3cn(-c4ccc(CNCCCNC(=N)N)cc4)c(=O)nc3[nH]2)c1 (stereo not shown) [Compound 32] |  | + (a “+” indicates that the compound has an MIC value of 16 micrograms/ml or less)
22 | Cc1c(CCCCN)cc(-c2cc3cn(-c4ccc(CNCCCNC(=N)N)cc4)c(=O)nc3[nH]2)cc1[N+](=O)[O-] [Compound 121] |  | + (a “+” indicates that the compound has an MIC value of 16 micrograms/ml or less)
23 | CC(N)CCCc1cc(Cl)c(F)c(-c2cc3cn(-c4ccc(C(C)NCCCNC(N)=NCC5CC5)cc4)c(=O)nc3[nH]2)c1 (stereo not shown) [Compound 346] | + (a “+” indicates that the compound has an MIC value of 16 micrograms/ml or less) | 
24 | C[S+]([O-])Cc1cc(CCCCN)cc(-c2cc3cn(-c4ccc(CNCCCNC(=N)N)cc4)c(=O)nc3[nH]2)c1 (stereo not shown) [Compound 2] |  | + (a “+” indicates that the compound has an MIC value of 16 micrograms/ml or less)
25 | C[C@H](N)CCCc1cc(OC(F)(F)F)cc(-c2cc3cn(-c4ccc([C@@H](C)N)cc4)c(=O)nc3[nH]2)c1 [Compound 405] | − (a “−” indicates that the compound has an MIC value greater than 16 micrograms/ml) | 
26 | CCOc1cc(CCCCN)cc(-c2cc3cn(-c4ccc(CNCCCNC(=N)N)cc4)c(=O)nc3[nH]2)c1C(F)(F)F [Compound 229] |  | + (a “+” indicates that the compound has an MIC value of 16 micrograms/ml or less)
27 | CC(N)COCc1cc(Cl)c(F)c(-c2cc3cn(-c4ccc(CNCCCNC(=N)N)cc4)c(=O)nc3[nH]2)c1 (stereo not shown) [Compound 375] | + (a “+” indicates that the compound has an MIC value of 16 micrograms/ml or less) | 
28 | COc1cc(CCCCN)cc(-c2cc3cn(-c4ccc(CNCCCNC(=N)N)cc4)c(=O)nc3[nH]2)c1C(F)(F)F [Compound 265] |  | + (a “+” indicates that the compound has an MIC value of 16 micrograms/ml or less)
29 | CC(C)[C@H](NCCCNC(=N)N)c1ccc(-n2cc3cc(-c4cc(CCC[C@H](C)N)cc(Cl)c4F)[nH]c3nc2=O)cc1 [Compound 433] | + (a “+” indicates that the compound has an MIC value of 16 micrograms/ml or less) | 
30 | C[C@H](NCCCNC(=N)N)c1ccc(-n2cc3cc(-c4cc(C[C@H]5C[C@@H](CN)C5)cc(SC(F)(F)F)c4)[nH]c3nc2=O)cc1 [Compound 402] | + (a “+” indicates that the compound has an MIC value of 16 micrograms/ml or less) | 
31 | CCc1cc(CCCC(C)N)cc(-c2cc3cn(-c4ccc(C(C)NCCCNC(=N)N)cc4)c(=O)nc3[nH]2)c1F (stereo not shown) [Compound 300] |  | + (a “+” indicates that the compound has an MIC value of 16 micrograms/ml or less)
